From ChEMBL document CHEMBL1201862, “PubChem BioAssay data set” (2004)
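Briefly, cells in 96-well plates were exposed to five compound concentrations for 48 h, and endpoints were estimated by linear interpolation. Here, GI50 denotes the concentration required for 50% inhibition of growth.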 The source made the active and inactive calls. Rule as the data show it: active = GI50 up to about 1.1 µM and inactive = higher.

Key:
Assay in all cases: DTP human tumour cell line panel, 48 h
NCI/ADR-RES = test system: NCI/ADR-RES
A498 = test system: A498
SNB-75 = test system: SNB-75
HOP-92 = test system: HOP-92
CAKI-1 = test system: CAKI-1
BT-549 = test system: BT-549
K562 = test system: K562
NCI-H460 = test system: NCI-H460
KM12 = test system: KM12
M14 = test system: M14
MOLT-4 = test system: MOLT-4
SK-MEL-2 = test system: SK-MEL-2
SNB-19 = test system: SNB-19
HT-29 = test system: HT-29
UO-31 = test system: UO-31
OVCAR-5 = test system: OVCAR-5
Malme-3M = test system: Malme-3M
SF-295 = test system: SF-295
DU-145 = test system: DU-145
UACC-257 = test system: UACC-257
SK-MEL-28 = test system: SK-MEL-28
LOX IMVI = test system: LOX IMVI
OVCAR-3 = test system: OVCAR-3
NCI-H23 = test system: NCI-H23
MDA-MB-435 = test system: MDA-MB-435
OVCAR-8 = test system: OVCAR-8
IGROV-1 = test system: IGROV-1
SN12C = test system: SN12C
RXF 393 = test system: RXF 393
SK-OV-3 = test system: SK-OV-3
U-251 = test system: U-251
HCC 2998 = test system: HCC 2998
T47D = test system: T47D
UACC-62 = test system: UACC-62
Hs-578T = test system: Hs-578T
COLO 205 = test system: COLO 205
MDA-MB-231 = test system: MDA-MB-231
HOP-62 = test system: HOP-62
SK-MEL-5 = test system: SK-MEL-5
SW-620 = test system: SW-620
MCF7 = test system: MCF7
HL-60 = test system: HL-60
RPMI-8226 = test system: RPMI-8226
CCRF-CEM = test system: CCRF-CEM
NCI-H226 = test system: NCI-H226
SR = test system: SR
PC-3 = test system: PC-3
OVCAR-4 = test system: OVCAR-4
MDA-N = test system: MDA-N
HCT-116 = test system: HCT-116
TK-10 = test system: TK-10
HCT-15 = test system: HCT-15
NCI-H522 = test system: NCI-H522
EKVX = test system: EKVX
786-0 = test system: 786-0
ACHN = test system: ACHN
A549 = test system: A549
SF-268 = test system: SF-268
SF-539 = test system: SF-539

For O=c1ccn(COC(COCc2ccccc2)COCc2ccccc2)c(=O)[nH]1, the GI50 (NCI/ADR-RES) was > 100 µM (inactive), the GI50 (A498) was > 100 µM (inactive) and the GI50 (SNB-75) was > 100 µM (inactive). The GI50 (HOP-92) was > 100 µM (inactive), the GI50 (CAKI-1) was > 100 µM (inactive) and the GI50 (BT-549) was > 100 µM (inactive). The GI50 (K562) was > 100 µM (inactive), the GI50 (NCI-H460) was > 100 µM (inactive) and the GI50 (KM12) was > 100 µM (inactive). The GI50 (M14) was > 100 µM (inactive), the GI50 (MOLT-4) was 24.2 µM (inactive) and the GI50 (SK-MEL-2) was > 100 µM (inactive). For the same compound, the GI50 (SNB-19) was > 100 µM (inactive), the GI50 (HT-29) was > 100 µM (inactive) and the GI50 (UO-31) was 51.4 µM (inactive). For the same compound, the GI50 (OVCAR-5) was > 100 µM (inactive), the GI50 (Malme-3M) was > 100 µM (inactive) and the GI50 (SF-295) was > 100 µM (inactive). The GI50 (DU-145) was > 100 µM (inactive), the GI50 (UACC-257) was > 100 µM (inactive) and the GI50 (SK-MEL-28) was > 100 µM (inactive). For the same compound, the GI50 (LOX IMVI) was > 100 µM (inactive), the GI50 (OVCAR-3) was > 100 µM (inactive) and the GI50 (NCI-H23) was > 100 µM (inactive). For the same compound, the GI50 (MDA-MB-435) was > 100 µM (inactive), the GI50 (OVCAR-8) was > 100 µM (inactive) and the GI50 (IGROV-1) was > 100 µM (inactive). For the same compound, the GI50 (SN12C) was > 100 µM (inactive), the GI50 (RXF 393) was > 100 µM (inactive) and the GI50 (SK-OV-3) was > 100 µM (inactive). For the same compound, the GI50 (U-251) was > 100 µM (inactive), the GI50 (HCC 2998) was > 100 µM (inactive) and the GI50 (T47D) was 64.1 µM (inactive). The GI50 (UACC-62) was 86.9 µM (inactive), the GI50 (Hs-578T) was > 100 µM (inactive) and the GI50 (COLO 205) was > 100 µM (inactive). The GI50 (MDA-MB-231) was 55.3 µM (inactive), the GI50 (HOP-62) was > 100 µM (inactive) and the GI50 (SK-MEL-5) was 76.4 µM (inactive). The GI50 (SW-620) was > 100 µM (inactive), the GI50 (MCF7) was > 100 µM (inactive) and the GI50 (HL-60) was 85.7 µM (inactive). For the same compound, the GI50 (RPMI-8226) was > 100 µM (inactive), the GI50 (CCRF-CEM) was > 100 µM (inactive) and the GI50 (NCI-H226) was > 100 µM (inactive). The GI50 (SR) was 62.8 µM (inactive), the GI50 (PC-3) was 77.6 µM (inactive) and the GI50 (OVCAR-4) was > 100 µM (inactive). For the same compound, the GI50 (MDA-N) was > 100 µM (inactive), the GI50 (HCT-116) was > 100 µM (inactive) and the GI50 (TK-10) was > 100 µM (inactive). The GI50 (HCT-15) was greater than 100 µM.
With CCOC(=O)c1nc2ccccc2nc1NCc1cc(OC)c(OC)c(OC)c1 the GI50 (NCI/ADR-RES) was 15.1 µM (inactive), the GI50 (A498) was 23.9 µM (inactive) and the GI50 (SNB-75) was 89.5 µM (inactive). The GI50 (HOP-92) was 34.3 µM (inactive), the GI50 (NCI-H522) was 33 µM (inactive) and the GI50 (CAKI-1) was 70.6 µM (inactive). The GI50 (BT-549) was 34.8 µM (inactive), the GI50 (K562) was 27.8 µM (inactive) and the GI50 (NCI-H460) was 28.8 µM (inactive). For the same compound, the GI50 (KM12) was 34.4 µM (inactive), the GI50 (MOLT-4) was 27.2 µM (inactive) and the GI50 (EKVX) was 51.1 µM (inactive). For the same compound, the GI50 (HT-29) was 40.5 µM (inactive), the GI50 (UO-31) was 24.6 µM (inactive) and the GI50 (OVCAR-5) was > 100 µM (inactive). For the same compound, the GI50 (Malme-3M) was 29.6 µM (inactive), the GI50 (SF-295) was 54.1 µM (inactive) and the GI50 (DU-145) was > 100 µM (inactive). For the same compound, the GI50 (UACC-257) was 75 µM (inactive), the GI50 (786-0) was 72.9 µM (inactive) and the GI50 (SK-MEL-28) was 58.3 µM (inactive). For the same compound, the GI50 (LOX IMVI) was 47 µM (inactive), the GI50 (OVCAR-3) was 75.5 µM (inactive) and the GI50 (NCI-H23) was > 100 µM (inactive). The GI50 (MDA-MB-435) was 20.3 µM (inactive), the GI50 (OVCAR-8) was 58.1 µM (inactive) and the GI50 (IGROV-1) was 53.1 µM (inactive). The GI50 (ACHN) was 43.6 µM (inactive), the GI50 (SN12C) was 27.4 µM (inactive) and the GI50 (RXF 393) was 14.9 µM (inactive). The GI50 (SK-OV-3) was 80.5 µM (inactive), the GI50 (A549) was 37.8 µM (inactive) and the GI50 (U-251) was 42.1 µM (inactive). For the same compound, the GI50 (SF-268) was > 100 µM (inactive), the GI50 (HCC 2998) was 53.7 µM (inactive) and the GI50 (SF-539) was > 100 µM (inactive). For the same compound, the GI50 (T47D) was 35.5 µM (inactive), the GI50 (UACC-62) was 36.8 µM (inactive) and the GI50 (Hs-578T) was 42.9 µM (inactive). The GI50 (COLO 205) was 38.2 µM (inactive), the GI50 (MDA-MB-231) was 27.4 µM (inactive) and the GI50 (HOP-62) was 55.1 µM (inactive). For the same compound, the GI50 (SK-MEL-5) was 26.9 µM (inactive), the GI50 (SW-620) was 42.2 µM (inactive) and the GI50 (MCF7) was 35.6 µM (inactive). The GI50 (HL-60) was 33.3 µM (inactive), the GI50 (RPMI-8226) was 25.2 µM (inactive) and the GI50 (CCRF-CEM) was 39.9 µM (inactive). For the same compound, the GI50 (NCI-H226) was 83 µM (inactive), the GI50 (SR) was 37.8 µM (inactive) and the GI50 (PC-3) was 25.2 µM (inactive). The GI50 (OVCAR-4) was 29.6 µM (inactive), the GI50 (MDA-N) was 14.8 µM (inactive) and the GI50 (HCT-116) was 36.1 µM (inactive). For the same compound, the GI50 (TK-10) was > 100 µM (inactive) and the GI50 (HCT-15) was 30.3 µM.
CC(C)(C)OC(=O)N1C(C2=COc3ccccc3O2)=COc2ccccc21 was tested, and the GI50 (NCI/ADR-RES) was 27.1 µM (inactive), the GI50 (A498) was 17.1 µM (inactive) and the GI50 (SNB-75) was 35 µM (inactive). The GI50 (HOP-92) was 19.6 µM (inactive), the GI50 (NCI-H522) was 16 µM (inactive) and the GI50 (CAKI-1) was 38 µM (inactive). For the same compound, the GI50 (BT-549) was 24.8 µM (inactive), the GI50 (K562) was 21.5 µM (inactive) and the GI50 (NCI-H460) was 28.9 µM (inactive). The GI50 (KM12) was 29.9 µM (inactive), the GI50 (M14) was 27.7 µM (inactive) and the GI50 (MOLT-4) was 17.1 µM (inactive). For the same compound, the GI50 (SK-MEL-2) was 22 µM (inactive), the GI50 (SNB-19) was 34.9 µM (inactive) and the GI50 (EKVX) was 16.8 µM (inactive). The GI50 (HT-29) was 32 µM (inactive), the GI50 (UO-31) was 30 µM (inactive) and the GI50 (OVCAR-5) was 33.3 µM (inactive). For the same compound, the GI50 (Malme-3M) was 22.9 µM (inactive), the GI50 (SF-295) was 26.9 µM (inactive) and the GI50 (DU-145) was 28 µM (inactive). For the same compound, the GI50 (UACC-257) was 23.9 µM (inactive), the GI50 (786-0) was 38.1 µM (inactive) and the GI50 (SK-MEL-28) was 30.1 µM (inactive). For the same compound, the GI50 (LOX IMVI) was 17.5 µM (inactive), the GI50 (OVCAR-3) was 21.1 µM (inactive) and the GI50 (NCI-H23) was 29.7 µM (inactive). The GI50 (MDA-MB-435) was 31.3 µM (inactive), the GI50 (OVCAR-8) was 28.3 µM (inactive) and the GI50 (IGROV-1) was 9.75 µM (inactive). For the same compound, the GI50 (ACHN) was 24.7 µM (inactive), the GI50 (SN12C) was 26.6 µM (inactive) and the GI50 (RXF 393) was 5.18 µM (inactive). For the same compound, the GI50 (SK-OV-3) was 29 µM (inactive), the GI50 (A549) was 32.7 µM (inactive) and the GI50 (U-251) was 32.1 µM (inactive). The GI50 (SF-268) was 21.3 µM (inactive), the GI50 (HCC 2998) was 16.2 µM (inactive) and the GI50 (SF-539) was 19.3 µM (inactive). For the same compound, the GI50 (T47D) was 11.5 µM (inactive), the GI50 (UACC-62) was 15.7 µM (inactive) and the GI50 (Hs-578T) was 41.5 µM (inactive). For the same compound, the GI50 (COLO 205) was 19.4 µM (inactive), the GI50 (MDA-MB-231) was 23.1 µM (inactive) and the GI50 (HOP-62) was 15.5 µM (inactive). For the same compound, the GI50 (SK-MEL-5) was 19.1 µM (inactive), the GI50 (SW-620) was 24.3 µM (inactive) and the GI50 (MCF7) was 24.2 µM (inactive). For the same compound, the GI50 (HL-60) was 19 µM (inactive), the GI50 (RPMI-8226) was 13.9 µM (inactive) and the GI50 (NCI-H226) was 23.8 µM (inactive). The GI50 (SR) was 21.1 µM (inactive), the GI50 (PC-3) was 32.8 µM (inactive) and the GI50 (OVCAR-4) was 36.8 µM (inactive). For the same compound, the GI50 (MDA-N) was 32.4 µM (inactive), the GI50 (HCT-116) was 23.9 µM (inactive) and the GI50 (TK-10) was 33.6 µM (inactive). It also gave a GI50 (HCT-15) of 31.2 µM.
